Key:
[1] = test system: AGS cells exposed to H. pylori; assay: Cell infection model: AGS cells exposed to H. pylori pre-cultured with inhibitors; assay type: cell-based, human; settings: for Normalized cell survival (%): H. pylori pre-cultured with 10 μM inhibitor 24 h, MOI 20, 24 h infection, Hp alone 28.8%
[2] = target: T1, UreG (Helicobacter pylori, UniProt Q09066); assay: Nickel binding of UreG (UV absorption at 337 nm) in presence of compounds; design: species or system H. pylori; settings: for percentage of Ni(II)-bound UreG: UreG 5 μM
Protocol: We further investigated whether binding of cmpd4 or cmpd8 to the guanine nucleotide binding pocket perturbed the Ni(II) coordination to the protein. Considering that coordination of Ni(II) to UreG results in a (Cys)→Ni(II) LMCT band centered at about 337 nm, we monitored the UV absorption of UreG samples (5 μM) at 337 nm upon titration of nickel with or without the supplement of cmpd4 or cmpd8. As shown in S19 Fig, cmpd4 at a ratio of [cmpd4]/[UreG] of 5 and 10 reduced the percentages of Ni(II)-bound UreG to ca. 75% and 30%, respectively, and a similar phenomenon was also observed for cmpd8 (S19 Fig), indicative of the disruption of nickel binding property of UreG through targeting nucleotide binding site.
Supplementary file pbio.2003887.s021.png: S19 Fig Effect of cmpd4 and cmpd8 on nickel binding property of UreG. UreG (5 μM) in HEPES buffer (5 μM GTP, 1 mM MgSO4) was titrated with NiSO4 in the presence of cmpd4 or cmpd8 at various concentrations. Titration of nickel ion into UreG samples led to the increasing of absorption at 337 nm, the highest of which was set as 100% for the percentage of Ni-bound UreG. The supplement of cmpd4 and cmpd8 reduced the percentage of Ni-bound UreG. […] (PNG) Click here for additional data file.

[3] = target: T1, UreG; assay: biochemical; assay type: biochemical, H. pylori
Protocol: A Malachite Green Phosphate Assay Kit (Abcam) was utilized to quantify the hydrolysis of GTP by UreG under various conditions. […] GTPase activity of UreG was triggered through the addition of 10 mM KHCO3, after which the reaction was incubated at 37°C for 30 min; then, the free phosphate from hydrolysis of GTP was determined. […] To eliminate the potential effect of small compounds on malachite green assay, the assay included a subtraction of the absorbance of reaction with the same amounts of compounds but without UreG enzyme for each reading.

[4] = target: UreGΔNKXD (Helicobacter pylori, UniProt Q09066, D148A/K146A/N145A); assay: Fluorescence-quenching titration of mutant UreGΔNKXD; assay type: binding, H. pylori
Protocol: To further confirm the interface between UreG and small molecules generated from computational models, we then constructed an UreG mutant (UreGΔNKXD) by replacing selected residues (N145, K146, D148) with Ala to disrupt G4 motif, which abolished GTP binding of UreG (S17 Fig).
(§1) Using the relation between the emission intensity at 310 nm and molecule-UreG–bound species, as well as one site-binding model, the Kd values were calculated by a logistic regression model referring to a previous report. […] All fluorescence readings were corrected for the dilution effect.

[5] = test system: AGS cells with H. pylori infection; assay: AGS cells with H. pylori infection, inhibitors administrated to the AGS cells (S20 Fig); assay type: cell-based, human; settings: 10 μM administrated to AGS cells with H. pylori infection
Excerpt: As expected, low viability of AGS with the supplement of cmpd4 and cmpd8 was observed due to the toxicity of small compounds to mammalian cells. […] (PNG) Click here for additional data file.

[6] = target: T1, UreG; assay: Fluorescence-quenching titration of UreG (Kd); assay type: binding, H. pylori
Protocol: as §1

[7] = target: H. pylori urease (Helicobacter pylori, UniProt P14916+P69996); assay: cell-based; assay type: cell-based; settings: read-out: inhibition of urease activity in H. pylori cells
[8] = test system: H. pylori; assay: Growth of H. pylori in neutral and acidic brucella broth (OD600); assay type: cell-based; settings: for OD600(pH5): acidic brucella broth pH 5.0, 24 h, control 0.93

T1 sequence (Q09066 whole entry): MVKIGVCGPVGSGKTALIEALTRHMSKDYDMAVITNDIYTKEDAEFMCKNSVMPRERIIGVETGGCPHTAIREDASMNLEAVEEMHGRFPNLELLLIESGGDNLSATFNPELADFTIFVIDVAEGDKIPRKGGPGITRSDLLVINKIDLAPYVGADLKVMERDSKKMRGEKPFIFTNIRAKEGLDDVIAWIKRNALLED
Chain of UreGΔNKXD (Q09066 whole entry N145A/K146A/D148A): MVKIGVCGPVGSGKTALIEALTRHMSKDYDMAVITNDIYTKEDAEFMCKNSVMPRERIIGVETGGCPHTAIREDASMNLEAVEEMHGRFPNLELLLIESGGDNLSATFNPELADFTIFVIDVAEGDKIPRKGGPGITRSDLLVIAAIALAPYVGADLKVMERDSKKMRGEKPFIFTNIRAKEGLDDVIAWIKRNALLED
Chain of H. pylori urease (P14916 whole entry, looked up): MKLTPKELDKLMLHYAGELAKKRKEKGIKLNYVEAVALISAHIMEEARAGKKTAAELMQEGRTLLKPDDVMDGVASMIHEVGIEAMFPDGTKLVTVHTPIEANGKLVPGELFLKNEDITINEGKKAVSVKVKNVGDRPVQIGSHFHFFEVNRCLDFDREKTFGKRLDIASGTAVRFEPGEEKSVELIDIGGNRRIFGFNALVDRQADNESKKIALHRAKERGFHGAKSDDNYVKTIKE
Chain of H. pylori urease (P69996 whole entry, looked up): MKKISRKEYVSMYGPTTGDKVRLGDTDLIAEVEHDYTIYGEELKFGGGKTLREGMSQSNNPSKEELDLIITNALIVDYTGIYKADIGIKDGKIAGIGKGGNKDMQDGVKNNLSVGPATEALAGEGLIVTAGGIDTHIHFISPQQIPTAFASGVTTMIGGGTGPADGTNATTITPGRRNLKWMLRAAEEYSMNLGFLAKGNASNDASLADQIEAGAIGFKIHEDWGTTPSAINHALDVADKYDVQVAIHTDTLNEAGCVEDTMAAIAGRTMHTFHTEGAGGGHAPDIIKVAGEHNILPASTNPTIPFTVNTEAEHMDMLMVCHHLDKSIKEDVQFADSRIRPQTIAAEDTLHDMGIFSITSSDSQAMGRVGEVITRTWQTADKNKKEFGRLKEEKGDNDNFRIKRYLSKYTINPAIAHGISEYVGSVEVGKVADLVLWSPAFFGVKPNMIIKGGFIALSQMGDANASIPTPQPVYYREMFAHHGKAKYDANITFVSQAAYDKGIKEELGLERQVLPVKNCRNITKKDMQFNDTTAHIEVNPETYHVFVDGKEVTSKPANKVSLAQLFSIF

Cc1cccc(N2CCN(C(=O)c3cc(S(=O)(=O)N(C)C)ccc3N3CCCC3)CC2)c1C [cmpd4]
Normalized cell survival (%) [1]: 70.3% ± 11.3% | Normalized cell survival (%) ([1]; listed as cmp4): 70.2703% | Ammonia in medium (mM) ([1]; H. pylori pre-cultured with 10 μM inhibitor, urea 10 mM, 24 h, Hp alone ca. 2.5 mM): around 1.1 mM | Ammonia in medium ([1]; H. pylori pre-cultured with 10 μM inhibitor, urea 10 mM, 24 h, Hp alone ca. 2.5 mM, listed as cmp4): 1.1872 mM | percentage of Ni(II)-bound UreG ([2]; [cmpd4]/[UreG] of 5): ca. 75% | percentage of Ni(II)-bound UreG ([2]; [cmpd4]/[UreG] of 10): ~30% | absorption at 337 nm ([2]; [compound]/[UreG] 5, Ni 0 μM): 5.14E-05 | absorption at 337 nm ([2]; [compound]/[UreG] 5, Ni 1 μM): 0.00539 | absorption at 337 nm ([2]; [compound]/[UreG] 5, Ni 2 μM): 0.00942 | absorption at 337 nm ([2]; [compound]/[UreG] 5, Ni 3 μM): 0.01515 | absorption at 337 nm ([2]; [compound]/[UreG] 5, Ni 4 μM): 0.01614 | absorption at 337 nm ([2]; [compound]/[UreG] 5, Ni 5 μM): 0.01885 | absorption at 337 nm ([2]; [compound]/[UreG] 5, Ni 6 μM): 0.02176 | absorption at 337 nm ([2]; [compound]/[UreG] 5, Ni 7 μM): 0.02335 | absorption at 337 nm ([2]; [compound]/[UreG] 5, Ni 8 μM): 0.02298 | absorption at 337 nm ([2]; [compound]/[UreG] 10, Ni 0 μM): -8.22E-04 | absorption at 337 nm ([2]; [compound]/[UreG] 10, Ni 1 μM): 0.00376 | absorption at 337 nm ([2]; [compound]/[UreG] 10, Ni 2 μM): 0.00766 | absorption at 337 nm ([2]; [compound]/[UreG] 10, Ni 3 μM): 0.00856 | absorption at 337 nm ([2]; [compound]/[UreG] 10, Ni 4 μM): 0.00995 | absorption at 337 nm ([2]; [compound]/[UreG] 10, Ni 5 μM): 0.01042 | absorption at 337 nm ([2]; [compound]/[UreG] 10, Ni 6 μM): 0.01062 | absorption at 337 nm ([2]; [compound]/[UreG] 10, Ni 7 μM): 0.01073 | absorption at 337 nm ([2]; [compound]/[UreG] 10, Ni 8 μM): 0.00864 | IC50 [3]: 16.8 ± 6.5 µM | Normalized GTPase activity(%) ([3]; log[μM] 0): 97.2% | Normalized GTPase activity(%) ([3]; log[μM] 0.60206): 90.0% | Normalized GTPase activity(%) ([3]; log[μM] 0.90309): 69.0% | Normalized GTPase activity(%) ([3]; log[μM] 1.20412): 56.9% | Normalized GTPase activity(%) ([3]; log[μM] 1.50515): 41.1% | Normalized GTPase activity(%) ([3]; log[μM] 1.79588): 28.1% | Normalized GTPase activity(%) ([3]; log[μM] 2.09691): 11.6% | Normalized GTPase activity(%) ([3]; log[μM] 2.39794): 16.3% | Normalized GTPase activity(%) ([3]; purified Ni-UreG (5 µM), 20 µM small compound): 43.9% | inhibition at 20 µM ([3]; read-out: inhibition of the GTPase activity of UreG): 37 to 72% | Kd [4]: 34.7 µM | fluorescence intensity (a.u.) ([4]; log(ligand[μM]) 0): 2206 a.u. | fluorescence intensity (a.u.) ([4]; log(ligand[μM]) 0.30103): 2092 a.u. | fluorescence intensity (a.u.) ([4]; log(ligand[μM]) 0.60206): 1907 a.u. | fluorescence intensity (a.u.) ([4]; log(ligand[μM]) 0.90309): 1710.67 a.u. | fluorescence intensity (a.u.) ([4]; log(ligand[μM]) 1.20412): 1454.33 a.u. | fluorescence intensity (a.u.) ([4]; log(ligand[μM]) 1.50515): 989.433 a.u. | fluorescence intensity (a.u.) ([4]; log(ligand[μM]) 1.80618): 540.3 a.u. | fluorescence intensity (a.u.) ([4]; log(ligand[μM]) 2.10721): 237.1 a.u. | fluorescence intensity (a.u.) ([4]; log(ligand[μM]) -0.30103): 2278 a.u. | fluorescence intensity (a.u.) ([4]; log(ligand[μM]) -1.30103): 2063.67 a.u. | Ammonia in medium [5]: 0.3373 mM | Normalized cell survival (%) [5]: low viability | Normalized cell survival (%) ([5]; listed as cmp4): 22.5225% | Kd [6]: 10.6 ± 2.3 µM | fluorescence intensity (a.u.) ([6]; log(ligand[μM]) 0): 2682 a.u. | fluorescence intensity (a.u.) ([6]; log(ligand[μM]) 0.30103): 2455.33 a.u. | fluorescence intensity (a.u.) ([6]; log(ligand[μM]) 0.60206): 2056.33 a.u. | fluorescence intensity (a.u.) ([6]; log(ligand[μM]) 0.90309): 1714.67 a.u. | fluorescence intensity (a.u.) ([6]; log(ligand[μM]) 1.20412): 1176.67 a.u. | fluorescence intensity (a.u.) ([6]; log(ligand[μM]) 1.50515): 615.233 a.u. | fluorescence intensity (a.u.) ([6]; log(ligand[μM]) 1.80618): 297.433 a.u. | fluorescence intensity (a.u.) ([6]; log(ligand[μM]) -0.30103): 2867.67 a.u. | fluorescence intensity (a.u.) ([6]; log(ligand[μM]) -0.60206): 2962.67 a.u. | fluorescence intensity (a.u.) ([6]; log(ligand[μM]) -1.30103): 3018 a.u. | inhibition at 20 µM [7]: ~60% | OD600(pH5) [8]: 0.46 | OD600(pH5) ([8]; listed as cmp4): 0.464 | OD600 (pH7) ([8]; neutral medium, 24 h, control 0.18): 0.141
